Experiment [1] deals with T1, AarC (AarCH6) (Acetobacter aceti, UniProt B3EY95).
T1 construct: C-terminal hexahistidine tag kept, plasmid pJK385 (N347A: pJK524), expressed in E. coli C41(DE3) pREP4-groESL, homodimer
Briefly: X-ray crystallography (co-crystal). Format: binding. Conditions: sodium citrate, imidazole pH 8.2, 22 °C.

Experiment [2] addresses T2, AarC (AarCH6) (Acetobacter aceti, UniProt B3EY95, N347A).
T2 construct: C-terminal hexahistidine tag kept, plasmid pJK385 (N347A: pJK524), expressed in E. coli C41(DE3) pREP4-groESL, homodimer
Briefly: X-ray crystallography (co-crystal). Format: binding. Conditions: 10 mM CoA, sodium citrate, imidazole pH 8.2, 22 °C; 2.13 Å; active site.

T2 sequence (B3EY95 whole entry N347A): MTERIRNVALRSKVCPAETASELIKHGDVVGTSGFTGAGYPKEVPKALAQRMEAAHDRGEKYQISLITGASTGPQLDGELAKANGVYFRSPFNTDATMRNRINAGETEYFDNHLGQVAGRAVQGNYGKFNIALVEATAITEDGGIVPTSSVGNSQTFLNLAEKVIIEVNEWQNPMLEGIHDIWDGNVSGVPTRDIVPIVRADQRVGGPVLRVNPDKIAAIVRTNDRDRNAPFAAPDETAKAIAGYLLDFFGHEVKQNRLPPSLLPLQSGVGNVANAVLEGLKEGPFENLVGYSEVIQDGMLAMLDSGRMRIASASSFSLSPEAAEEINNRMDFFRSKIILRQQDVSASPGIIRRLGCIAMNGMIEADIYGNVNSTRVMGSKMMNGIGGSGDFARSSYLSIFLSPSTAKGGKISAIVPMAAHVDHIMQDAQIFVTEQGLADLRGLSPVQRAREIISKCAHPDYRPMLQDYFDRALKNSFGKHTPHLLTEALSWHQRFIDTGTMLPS

For `CCCNC(=O)CCNC(=O)[C@H](O)C(C)(C)COP(=O)(O)OP(=O)(O)OC[C@H]1O[C@@H](n2cnc3c(N)ncnc32)[C@H](O)[C@@H]1OP(=O)(O)O` [2a, 3′-phosphoadenosine 5′-(O-(N-propyl-R-pantothenamide))pyrophosphate], the “X-ray crystallography (co-crystal)” value at AarC (AarCH6) [1] (1-3 mM 2a, 1.66 Å, active site, 5dw6 is the complex with added acetate (1.55 Å)) is on record as “The AarC•2a complex (PDB entry 5dw5) contained three chloride ions”.

Take `CC(C)(COP(=O)(O)OP(=O)(O)OC[C@H]1O[C@@H](n2cnc3c(N)ncnc32)[C@H](O)[C@@H]1OP(=O)(O)O)[C@@H](O)C(=O)NCCC(=O)NCCS` [CoA]: the “X-ray crystallography (co-crystal)” value on AarC (AarCH6) [2] is reported as “The B subunits of AarC-N347A (PDB entry 5ddk, white carbon atoms)”.

Turning to `CC(=O)O` [acetate], the “X-ray crystallography (co-crystal)” value at AarC (AarCH6) [1] (1-50 mM sodium acetate, 1.62 Å, three sites per subunit, the first near the active site, also in 5dw6 with 2a) was “The final model contained three acetate binding sites in each subunit”.

Source of the values: PMC4876117, “Functional Dissection of the Bipartite Active Site of the Class I Coenzyme A (CoA)-Transferase Succinyl-CoA:Acetate CoA-Transferase” (Frontiers in Chemistry, 2016).
